Experimental data taken from US11571459B2, “Methods for treating cancer using PS-targeting antibodies with immuno-oncology agents” (ONCXERNA THERAPEUTICS, INC., priority 2017, dated 2023).

Key:
PS = experiment: ELISA binding to PS-coated plates; details: phospholipid-coated ELISA plates
Experimental: The 3G4 antibody was produced by immunizing mice with autologous, PS-positive endothelial cells, as reported in Ran et al., 2005. The 3G4 antibody was tested for binding to PS in a standard ELISA in the presence and absence of serum, and was initially characterized as being “serum-independent”, i.e., an antibody that binds to PS in the absence of serum.
In a follow-on study, the binding of the 2aG4 antibody to PS was tested in an ELISA in the presence of varying concentrations of human β2GPI.
These included binding to PS in ELISAs, FACS analyses using PS-positive cells and functional assays in the form of an NFAT surrogate ADCC bioassay (Larson et al., 2013).

[1] = test system: previously treated non-squamous NSCLC; details: in vivo
Experimental: The primary objective of this study was to compare the ORR (CR+PR) among the treatment arms. Secondary objectives included comparing PFS, DR, OS, safety and PK.
Additional blood draws were performed for these patients during Cycles 1 and 2 at specified time points.
Samples from the NSCLC Phase II trial of Example IX (PPHM 0902) were tested using the functional β2GPI assay of Example XII.

[2] = test system: previously-treated Stage IIIb/IV non-squamous NSCLC; experiment: Phase III trial of bavituximab plus docetaxel in NSCLC
From the text: This global, double-blind Phase III trial was initiated in 2012. Selection criteria were for patients with Stage IIIb/IV non-squamous NSCLC who progressed on platinum-doublet chemotherapy (should have progressed on appropriate targeted therapy if known EGFR or ALK mutation), with ECOG PS 0-1 and prior immunotherapy allowed (ECOG is the performance status scale defined by the Eastern Cooperative Oncology Group). […] The primary endpoint was overall survival (OS) and secondary endpoints included objective response rate (Independent Central Review, ICR), progression-free survival (ICR), safety, PK, Quality of Life (LCSS) and exploratory biomarkers, including immune correlates.
OS was analyzed by VeriStrat subgroups using Kaplan-Meier statistical methods.
A single cutoff method was first used to assess the patient β2GPI data.
The initial analyses described above prompted further, extensive analyses of the data in 592 evaluable patients. These analyses used a two cutoff method (Klein & Moeschberger, 2003).
Archival tissue obtained at the time of diagnosis was requested, but not required, in the Phase III trial of Example X. Formalin-fixed paraffin-embedded (FFPE) slides were stained with antibodies for a panel of lymphoid (or tumor) cell markers, as described in Feng et al., 2015: CD3+, CD8+, FoxP3+, PD-L1+, CD163+ and CK+ (cytokeratin, an epithelial carcinoma marker) using a mutliplex (6-plex) quantitative immunohistochemistry (IHC) assay (OPAL®, PerkinElmer, Waltham, Mass., USA) and using DAPI. The PD-L1 antibody used was the rabbit anti-PD-L1 antibody termed E1L3N® XP® (Cell Signaling Technology, (CST), Danvers, Mass., Catalogue #13684; Mahoney et al., 2015). Baseline PD-L1 expression was retrospectively scored on tumor cells (TC, i.e., CK+) and PD-L1 expressing tumor cells were classified according to their percentage within the total number of tumor cells using established assays and classifications (Fehrenbacher et al., 2016), as follows: TC3≥50%; TC2≥5% and ≤50%; TC1≥1% and <5%; and TC0<1%. Cox regression models for PD-L1 IHC subgroup populations were used for correlation with OS.
Kaplan-Meier statistical methods and Cox proportional hazard models were utilized to evaluate and contrast the correlation of peripheral (and intratumoral) IFNγ levels with OS based on a data cut from the Phase III trial (Example X) dated Feb.

[3] = test system: previously untreated stage IV pancreatic cancer; experiment: Phase II (PPHM 1002) gemcitabine with or without bavituximab; assay type: in vivo, human; details: for median overall survival: at study closure
Experimental: The primary objective was to compare the OS of patients among the treatment arms. Secondary objectives included comparing PFS, ORR, DR and safety.
Gemcitabine (1000 mg/m^2) was given on days 1, 8, and 15 of each 28-day cycle (4 weeks) until disease progression or unacceptable toxicities. A total of 70 patients were enrolled to the study. In general, the patient population had very extensive disease burden, which may have reduced the response in both arms.
The levels of pre-treatment functional β2GPI ranged from 82.5 to 343.2 μg/ml for all patients. For these 31 patients, the mean level of pre-treatment functional β2GPI (219.2 μg/ml) was consistent with the average reported in the literature.

[4] = Phase I dose escalation study of bavituximab monotherapy in refractory advanced solid tumors: PK, safety
Experimental: Samples were collected from patients in the 0.1 and 0.3 mg/kg dose cohorts before the study, on days 0, 1, 2, 4, 7, 10, 14, and every 7 days from days 21 to 70. Samples were collected from patients in the 1 and 3 mg/kg dose cohorts before the study, on days 0, 1, 2, 4, 7, 14, 21, 22, 23, 25, and every 7 days from days 28 to 56.

functional β2GPI = biological target: T1, functional β2GPI (Homo sapiens, UniProt P02749); experiment: Functional β2GPI assay (PS-coated plate, bavituximab-HRP); assay type: binding; details: for concentration read out in functional β2GPI assay: recombinant or plasma-derived β2GPI
T1 construct: Samples of β2GPI purified from human plasma and recombinant human β2GPI were both treated with plasmin; from tissue; host or cells: human plasma / serum
T1 sequence (P02749 20-345): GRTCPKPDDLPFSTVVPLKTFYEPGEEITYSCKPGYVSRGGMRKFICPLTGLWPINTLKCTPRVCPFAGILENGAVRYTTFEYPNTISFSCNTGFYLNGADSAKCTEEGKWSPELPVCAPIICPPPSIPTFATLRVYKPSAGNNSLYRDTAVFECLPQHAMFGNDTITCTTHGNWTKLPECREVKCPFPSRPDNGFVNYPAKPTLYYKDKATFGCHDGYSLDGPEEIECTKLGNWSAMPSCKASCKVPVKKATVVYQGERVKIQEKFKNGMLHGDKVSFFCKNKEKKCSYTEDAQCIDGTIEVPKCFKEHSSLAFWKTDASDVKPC
From the text: The following particular materials and equipment were used in the assay to generate the Results presented in this example under Sections B1 and B2. Materials: 96-well medium binding flat bottom plates (Greiner BioOne, cat #655001); 96-well non-binding round bottom plates (Costar, cat #3605); hexane (Sigma, cat #32293); PS antigen (Sigma, cat #P6641); ovalbumin (Sigma, cat #A5503); chromogenic substrate, tetramethylbenzidine (TMB), (KPL, cat #50-76-00); 2M H2SO4 (Fisher, Cat #SA818-4); plate covers (Fisher 015-027-11); adhesive plate sealer (VWR 232701); reagent reservoirs (VistaLab Cat #3054-1000). 1.5 mL microcentrifuge tubes, 50 mL conical tubes and 15 mL conical tubes were also utilized.
The Wash Buffer is IX phosphate-buffered saline (PBS) and the Blocking Buffer is 2% Ovalbumin in IX PBS.
The bavituximab antibody was conjugated to horseradish peroxidase (HRP) to prepare a bavituximab-HRP detection agent for use in the assay. The conjugation was performed using EZ-Link® Plus Activated Peroxidase (Thermo Scientific, Cat #31487) following the procedure for conjugating activated peroxidase to an antibody at pH 7.2 provided by the manufacturer. […] This was added to 1 mg of lyophilized EZ-Link Plus activated peroxidase to reconstitute. Immediately following reconstitution, 10 μL of 5M sodium cyanoborohydride solution was added to the reaction and incubated for 1 hour at room temperature. Once incubation was completed, 20 μL of quenching buffer was added and incubated for 15 minutes at room temperature. Conjugated bavituximab-HRP (1 mg/mL) was stored at 4° C. for up to 4 weeks.
The ELISA plates were coated with the PS antigen as follows: 5 μg/mL PS antigen was prepared and diluted into 6 mL of hexane in a fume hood with the blower off. 50 μL of PS solution was added to each well using a 12-channel pipette. The fume hood blower was turned back on and the hexane allowed to evaporate for 30-45 minutes, typically 30 minutes.
The PS-coated ELISA plates were blocked as follows: 100 mL per plate of the Blocking Buffer (2% Ovalbumin in IX PBS) was prepared. 200 μL of Blocking Buffer was added to each well using a 12-channel pipette.
The β2GPI standards for the positive control were obtained from Haematologic Technologies, Inc. (HTI; cat #B2G1-0001-C; 1.0 mg/ml) in a buffer of 0.2 M Glycine, 0.15 M NaCl, pH 7.4. […]

[5] = 70% of targeted OS events reached
[6] = about 85% of targeted OS events

With “2aG4: mouse IgG2a chimeric version of the 3G4 antibody” the “binding to phospholipids in standard ELISA” value (PS) was “essentially the same affinity and binding profile as the 3G4 antibody”.

With `CC(=O)O[C@@]12CO[C@@H]1C[C@H](O)[C@@]1(C)C(=O)[C@H](O)C3=C(C)[C@@H](OC(=O)[C@H](O)[C@@H](NC(=O)OC(C)(C)C)c4ccccc4)C[C@@](O)([C@@H](OC(=O)c4ccccc4)[C@H]21)C3(C)C` [docetaxel, reference compound] the pharmacokinetic drug-drug interaction [1] was “exhibited similar pharmacokinetic characteristics with or without the administration of bavituximab”, the “median OS” value ([2]; 12 months follow-up, about 85% of targeted OS events) was 10.9 months and the mOS [2, 5] was 10.8 months. For the same molecule, the “median PFS” value [2, 5] was 3.9 months, the mOS ([2]; IFNγ high, no subsequent IO) was 9.2 months and the mOS ([2]; IFNγ high, received subsequent IO) was 13.5 months. The mOS ([2]; IFNγ low, no subsequent IO) was 10.8 months, the mOS ([2]; IFNγ low, received subsequent IO) was 12.1 months and the mOS ([2]; VS Good patients (VeriStrat)) was 11.8 months. For the same molecule, the mOS ([2]; VS Poor patients (VeriStrat)) was 4.7 months, the “Grade 3 or higher adverse events” value [2, 6] was 60% and the ORR [2, 6] was 11%. The PFS [2, 6] was 4.1 months, the mOS ([2]; functional β2GPI 200-240 μg/mL) was 7.7 months and the mOS ([2]; functional β2GPI ≥200 μg/mL, 578 evaluable patients) was 9.4 months. For the same molecule, the mOS ([2]; functional β2GPI ≥200 μg/mL, 592 evaluable patients) was 10.1 months, the mOS ([2]; functional β2GPI ≥200 μg/mL, with subsequent IO) was 12.3 months and the mOS ([2]; functional β2GPI ≥200 μg/mL, without subsequent IO) was 9.2 months. The mOS ([2]; higher PD-L1 expression (TC1/2/3, ≥1%)) was 10.4 months, the “HR, PD-L1 TC0 versus TC1/2/3 within arm” value ([2]; in vivo) was 0.93 and the mOS ([2]; negative PD-L1 expression (TC0, <1%)) was 11.1 months. It also gave a mOS ([2]; patients receiving subsequent IO) of 12.6 months, a mOS ([2]; patients who did not receive subsequent IO) of 10.2 months and a mOS ([2]; pre-treatment serum IFNγ high (≥ median 0.093 μg/mL)) of 10.6 months. It also gave a mOS ([2]; pre-treatment serum IFNγ low (< median 0.093 μg/mL)) of 11.1 months, a mOS ([2]; β2GPI less than 200 μg/mL, with subsequent IO) of 18.6 months and a mOS ([2]; β2GPI less than 200 μg/mL, without subsequent IO) of 11.6 months.

Work on `Nc1ccn([C@@H]2O[C@H](CO)[C@@H](O)C2(F)F)c(=O)n1` [gemcitabine, reference compound] yielded a median overall survival [3] of 5.2 months.

For Bavi, the “Bavi” value ([4]; Cmax at 3 mg/kg expressed as molar concentration) was 0.389 µM and the “Cmax” value ([4]; bavituximab 3 mg/kg, maximum concentration in blood (Example II; Gerber et al., 2011)) was 56.4 µg/mL.

With “bavituximab plus gemcitabine: treatment arm: gemcitabine with weekly 3 mg/kg bavituximab” the median overall survival [3] was 5.6 months, the TEAE anemia ([3]; in vivo) was 35.3% and the “TEAE fatigue, constipation and anorexia (each)” value ([3]; in vivo) was 32.4%. For the same molecule, the TEAE nausea ([3]; in vivo) was 44.1% and the “response rate and survival probability at 1 year compared with gemcitabine only” value ([3]; in vivo) was “numerically higher response rate and survival probability at 1 year”.

B1: β2GPI: plasmin-free (intact) β2GPI purified from human plasma or recombinant (protein)
chain: GRTCPKPDDLPFSTVVPLKTFYEPGEEITYSCKPGYVSRGGMRKFICPLTGLWPINTLKCTPRVCPFAGILENGAVRYTTFEYPNTISFSCNTGFYLNGADSAKCTEEGKWSPELPVCAPIICPPPSIPTFATLRVYKPSAGNNSLYRDTAVFECLPQHAMFGNDTITCTTHGNWTKLPECREVKCPFPSRPDNGFVNYPAKPTLYYKDKATFGCHDGYSLDGPEEIECTKLGNWSAMPSCKASCKVPVKKATVVYQGERVKIQEKFKNGMLHGDKVSFFCKNKEKKCSYTEDAQCIDGTIEVPKCFKEHSSLAFWKTDASDVKPC
For B1, the “concentration read out in functional β2GPI assay” value (functional β2GPI) was ~136 ng/mL.

B2: plasmin-treated β2GPI: β2GPI treated with plasmin, majority nicked, does not bind PS (protein)
chain: GRTCPKPDDLPFSTVVPLKTFYEPGEEITYSCKPGYVSRGGMRKFICPLTGLWPINTLKCTPRVCPFAGILENGAVRYTTFEYPNTISFSCNTGFYLNGADSAKCTEEGKWSPELPVCAPIICPPPSIPTFATLRVYKPSAGNNSLYRDTAVFECLPQHAMFGNDTITCTTHGNWTKLPECREVKCPFPSRPDNGFVNYPAKPTLYYKDKATFGCHDGYSLDGPEEIECTKLGNWSAMPSCKASCKVPVKKATVVYQGERVKIQEKFKNGMLHGDKVSFFCKNKEKKCSYTEDAQCIDGTIEVPKCFKEHSSLAFWKTDASDVKPC
For B2, the “concentration read out in functional β2GPI assay” value (functional β2GPI) was 33 ng/mL.

B3: Recombinant Plasmin-free β2GPI (protein, UniProt P02749 20-345, looked up)
Beta-2-glycoprotein 1: GRTCPKPDDLPFSTVVPLKTFYEPGEEITYSCKPGYVSRGGMRKFICPLTGLWPINTLKCTPRVCPFAGILENGAVRYTTFEYPNTISFSCNTGFYLNGADSAKCTEEGKWSPELPVCAPIICPPPSIPTFATLRVYKPSAGNNSLYRDTAVFECLPQHAMFGNDTITCTTHGNWTKLPECREVKCPFPSRPDNGFVNYPAKPTLYYKDKATFGCHDGYSLDGPEEIECTKLGNWSAMPSCKASCKVPVKKATVVYQGERVKIQEKFKNGMLHGDKVSFFCKNKEKKCSYTEDAQCIDGTIEVPKCFKEHSSLAFWKTDASDVKPC
modifications: recombinant, plasmin-free
With B3 the “Conc. (ng/mL) read out in Functional β2GPI Assay” value (functional β2GPI; PS-coated plate, bavituximab-HRP, nicked vs intact β2GPI samples) was 136.42 ng/mL.
